Laboratory results: ChEMBL document CHEMBL1201862, “PubChem BioAssay data set” (2004)
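Tested at 5 concentrations; 48 h exposure; 96-well plates; endpoints linearly interpolated, else capped at highest concentration. The concentration for 50% growth inhibition is given as GI50.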 The source made the active and inactive calls. No stated cut-off is given here; in the data, active = GI50 up to about 1.1 µM and inactive = higher.

Legend:
Assay in all cases: NCI tumour cell line growth inhibition, 48 h
LOX IMVI = system: LOX IMVI
HOP-92 = system: HOP-92
SR = system: SR
HCT-15 = system: HCT-15
DU-145 = system: DU-145
TK-10 = system: TK-10
ACHN = system: ACHN
HL-60 = system: HL-60
Hs-578T = system: Hs-578T
IGROV-1 = system: IGROV-1
HOP-62 = system: HOP-62
SNB-19 = system: SNB-19
CAKI-1 = system: CAKI-1
A549 = system: A549
UO-31 = system: UO-31
MDA-N = system: MDA-N
COLO 205 = system: COLO 205
NCI-H23 = system: NCI-H23
RXF 393 = system: RXF 393
SF-539 = system: SF-539

SMILES	GI50 (LOX IMVI)	GI50 (HOP-92)	GI50 (SR)	GI50 (HCT-15) [µM]	GI50 (DU-145)	GI50 (TK-10)	GI50 (ACHN)	GI50 (HL-60)	GI50 (Hs-578T)	GI50 (IGROV-1)	GI50 (HOP-62)	GI50 (SNB-19)	GI50 (CAKI-1)	GI50 (A549)	GI50 (UO-31)	GI50 (MDA-N)	GI50 (COLO 205)	GI50 (NCI-H23)	GI50 (RXF 393)	GI50 (SF-539)
Cc1ccccc1/N=N/c1ccc(N/N=C2/CCCNC2=O)c(C)c1	> 100 µM (inactive)	> 100 µM (inactive)	36.1 µM (inactive)	> 100	> 100 µM (inactive)	> 100 µM (inactive)	> 100 µM (inactive)	8.55 µM (inactive)	> 100 µM (inactive)	> 100 µM (inactive)	> 100 µM (inactive)	> 100 µM (inactive)	> 100 µM (inactive)	68.1 µM (inactive)	39.5 µM (inactive)	> 100 µM (inactive)	> 100 µM (inactive)	> 100 µM (inactive)	> 100 µM (inactive)	
CC(C)(C)OC(=O)n1cc(C2CNC(=O)C23CCC(=O)N3Cc2ccccc2)c2ccccc21 (stereo unspecified)	19.8 µM (inactive)	10.9 µM (inactive)	32.4 µM (inactive)		20.4 µM (inactive)	17.1 µM (inactive)		28.1 µM (inactive)	29.9 µM (inactive)	17.3 µM (inactive)	24.8 µM (inactive)	33.3 µM (inactive)	36.9 µM (inactive)	18.7 µM (inactive)	22.1 µM (inactive)	28.2 µM (inactive)	15.8 µM (inactive)	23.2 µM (inactive)	21.9 µM (inactive)	19.4 µM (inactive)
COc1ccc(C(=O)C#Cc2cnc(OC)nc2OC)cc1	0.147 µM (active)	1.76 µM (inactive)	0.0491 µM (active)	1.02	2.31 µM (inactive)	1.67 µM (inactive)	1.5 µM (inactive)	1.63 µM (inactive)	4.07 µM (inactive)	1.45 µM (inactive)	17 µM (inactive)	12.2 µM (inactive)	1.19 µM (inactive)	4.17 µM (inactive)	1.29 µM (inactive)	1.58 µM (inactive)	1.57 µM (inactive)	1.48 µM (inactive)	1.87 µM (inactive)	
O=C1NCC2(CCN(CCCC3(c4ccc(F)cc4)OCCO3)CC2)N1c1ccccc1	> 100 µM (inactive)	36.7 µM (inactive)	> 100 µM (inactive)	> 100	> 100 µM (inactive)	> 100 µM (inactive)	> 100 µM (inactive)	> 100 µM (inactive)	> 100 µM (inactive)	> 100 µM (inactive)	> 100 µM (inactive)	> 100 µM (inactive)	50.1 µM (inactive)	> 100 µM (inactive)		> 100 µM (inactive)	> 100 µM (inactive)	> 100 µM (inactive)	> 100 µM (inactive)	> 100 µM (inactive)
CC(=O)Nc1c(S(=O)(=O)c2ccccc2)c(C)c(C)n1Cc1ccccc1		> 100 µM (inactive)	> 10 µM (inactive)	> 100	> 100 µM (inactive)	> 100 µM (inactive)	> 100 µM (inactive)	> 100 µM (inactive)	> 100 µM (inactive)	> 100 µM (inactive)		> 100 µM (inactive)	> 100 µM (inactive)	> 100 µM (inactive)	> 100 µM (inactive)	> 100 µM (inactive)	> 100 µM (inactive)	> 100 µM (inactive)	> 100 µM (inactive)	
Cc1c(NC(=O)c2cc([N+](=O)[O-])cc([N+](=O)[O-])c2)c(=O)n(-c2ccccc2)n1C	> 100 µM (inactive)	76.9 µM (inactive)	69.8 µM (inactive)	83.9	> 100 µM (inactive)	> 100 µM (inactive)		> 100 µM (inactive)	> 100 µM (inactive)	48.8 µM (inactive)	> 100 µM (inactive)	> 100 µM (inactive)	> 100 µM (inactive)	> 100 µM (inactive)	> 100 µM (inactive)	> 100 µM (inactive)	20.1 µM (inactive)	> 100 µM (inactive)	> 100 µM (inactive)	69.8 µM (inactive)
CC(C)=C[C@@H]1O[C@H](O)[C@@H]([C@H]2CC[C@@]3(C)[C@@H]4CC[C@H]5C(C)(C)C(=O)CC[C@@]56C[C@@]46CC[C@]23C)[C@@H]1O		16.6 µM (inactive)	9.64 µM (inactive)	16.9	16.1 µM (inactive)	16 µM (inactive)	18.1 µM (inactive)	14.2 µM (inactive)	21.2 µM (inactive)	19.5 µM (inactive)	23.7 µM (inactive)	20.9 µM (inactive)	17.3 µM (inactive)	14.4 µM (inactive)	15.3 µM (inactive)	15.9 µM (inactive)	20.1 µM (inactive)	16.4 µM (inactive)	12.7 µM (inactive)	12.4 µM (inactive)
CCOC(=O)c1nc2c3c(ncn2n1)Oc1c(c(-c2ccccc2)nn1-c1ccccc1)C3c1ccc(Cl)cc1 (stereo unspecified)	> 100 µM (inactive)	> 100 µM (inactive)	> 100 µM (inactive)	> 100	> 100 µM (inactive)	> 100 µM (inactive)	> 100 µM (inactive)	> 100 µM (inactive)	> 100 µM (inactive)		> 100 µM (inactive)	> 100 µM (inactive)	> 100 µM (inactive)	> 100 µM (inactive)	> 100 µM (inactive)	> 100 µM (inactive)	> 100 µM (inactive)	> 100 µM (inactive)	> 100 µM (inactive)	> 100 µM (inactive)
CC(=O)c1ccc(/N=N/N2CCCC2)cc1	> 100 µM (inactive)	> 100 µM (inactive)	> 100 µM (inactive)	> 100	> 100 µM (inactive)	> 100 µM (inactive)	> 100 µM (inactive)	29.5 µM (inactive)	> 100 µM (inactive)	> 100 µM (inactive)	> 100 µM (inactive)	> 100 µM (inactive)	> 100 µM (inactive)		> 100 µM (inactive)	> 100 µM (inactive)	> 100 µM (inactive)	> 100 µM (inactive)	> 100 µM (inactive)	> 100 µM (inactive)
COC12c3ccccc3-c3ccccc3C1[C@@H](C(=O)O)[C@H]2C(=O)O (stereo partly specified)	> 10 µM (inactive)	> 10 µM (inactive)	> 10 µM (inactive)	> 10	> 10 µM (inactive)	> 10 µM (inactive)	> 10 µM (inactive)	> 10 µM (inactive)	> 10 µM (inactive)	> 10 µM (inactive)	> 10 µM (inactive)	> 10 µM (inactive)	> 10 µM (inactive)		> 10 µM (inactive)	> 10 µM (inactive)	> 10 µM (inactive)	> 10 µM (inactive)	> 10 µM (inactive)	> 10 µM (inactive)
C=C1C(O)C[C@H](OC(C)=O)[C@]2(C)C1C(OC(C)=O)[C@]1(C(C)(C)O)CC(O)C(C)=C1[C@@H](OC(=O)c1ccccc1)C2OC(C)=O (stereo partly specified)	> 10 µM (inactive)	> 10 µM (inactive)	> 10 µM (inactive)	> 10	> 10 µM (inactive)	> 10 µM (inactive)	> 10 µM (inactive)	> 10 µM (inactive)	> 10 µM (inactive)	> 10 µM (inactive)		> 10 µM (inactive)	> 10 µM (inactive)	> 10 µM (inactive)	> 10 µM (inactive)	> 10 µM (inactive)	> 10 µM (inactive)	> 10 µM (inactive)	> 10 µM (inactive)	> 10 µM (inactive)
